# Assay results: patent US8440628B2, “Medical compositions containing ghrelin” (Daiichi Sankyo Company, Limited, priority 2002, dated 2013)
# What was measured:
# [1] = Stability of human ghrelin in Britton-Robinson buffer solutions of various pH at 40°C (Example 3); type: physicochemical; conditions: pH of 3.1, 4.0, 5.0 and 6.0, 40±1°C, storage time not stated, target value 85%
# Procedure: Human ghrelin, which is one of the ghrelins, was dissolved in the Britton-Robinson buffer solutions which is adjusted by combining 0.04M phosphoric acid-acetic acid-boric acid aqueous solution and 0.2M sodium hydrate aqueous solution in appropriate ratio, having pH of 2.1, 3.1, 4.0, 5.0, 6.0, 7.0 and 7.9 to obtain an aqueous solution containing human ghrelin in the concentration of about 0.15 μmol/mL (0.5 mg/mL). The obtained solution was filled in brownish glass ampoules and the ampoules were sealed with fire. For the calculation of kinetic constant, the certain degrees of degradation products have to be occurred in the aqueous solution of the ghrelins, and therefore, the ampoules were stored at 40±1° C., which was severe conditions for storage. The concentration (residual ratio) of human ghrelin was conducted by HPLC with time. At the same time, the pH of the solution was measured and it was confirmed that there was no significant changes of pH in solution.
# The kinetic constants in each pH solution were calculated from the sequential change of the residual ratio, and the results were shown in FIG. 2.
# [2] = Stability of human ghrelin in 0.1M HCl and Mcllvain buffer solutions of various pH at 25°C (Example 2, HPLC peak area ratio); type: physicochemical
# Procedure: Human ghrelin was dissolved in the following aqueous solutions in the concentration of about 0.15 μmol/mL (0.5 mg/mL).
# 0.1M HCl aqueous solution (pH: 1.1)
# The pH was adjusted with 0.1M citric aqueous acid and 0.2M dibasic sodium phosphate aqueous solution.
# Each solution were stored at 25±2° C. for 8, 24, 48 and 72 hours respectively, and the obtained solutions were detected by HPLC analysis in comparison to the solutions before storage. […] No significant changes of pH in solution before storage and after storage were observed.
# [3] = human ghrelin 0.5 mg/mL in 0.1M HCl aqueous solution, pH 1, 25±2°C, 8 hr. after
# [4] = human ghrelin 0.5 mg/mL in 0.1M HCl aqueous solution, pH 1, 25±2°C, 24 hr. after
# [5] = human ghrelin 0.5 mg/mL in 0.1M HCl aqueous solution, pH 1, 25±2°C, 48 hr. after
# [6] = human ghrelin 0.5 mg/mL in 0.1M HCl aqueous solution, pH 1, 25±2°C, 72 hr. after
# [7] = human ghrelin 0.5 mg/mL in 0.1M HCl aqueous solution, pH 1, 25±2°C, before storage
# [8] = human ghrelin 0.5 mg/mL in Mcllvain buffer, pH 2, 25±2°C, 8 hr. after
# [9] = human ghrelin 0.5 mg/mL in Mcllvain buffer, pH 2, 25±2°C, 24 hr. after
# [10] = human ghrelin 0.5 mg/mL in Mcllvain buffer, pH 2, 25±2°C, 48 hr. after
# [11] = human ghrelin 0.5 mg/mL in Mcllvain buffer, pH 2, 25±2°C, 72 hr. after
# [12] = human ghrelin 0.5 mg/mL in Mcllvain buffer, pH 2, 25±2°C, before storage
# [13] = human ghrelin 0.5 mg/mL in Mcllvain buffer, pH 3, 25±2°C, 8 hr. after
# [14] = human ghrelin 0.5 mg/mL in Mcllvain buffer, pH 3, 25±2°C, 24 hr. after
# [15] = human ghrelin 0.5 mg/mL in Mcllvain buffer, pH 3, 25±2°C, 48 hr. after
# [16] = human ghrelin 0.5 mg/mL in Mcllvain buffer, pH 3, 25±2°C, 72 hr. after
# [17] = human ghrelin 0.5 mg/mL in Mcllvain buffer, pH 3, 25±2°C, before storage
# [18] = human ghrelin 0.5 mg/mL in Mcllvain buffer, pH 4, 25±2°C, 8 hr. after
# [19] = human ghrelin 0.5 mg/mL in Mcllvain buffer, pH 4, 25±2°C, 24 hr. after
# [20] = human ghrelin 0.5 mg/mL in Mcllvain buffer, pH 4, 25±2°C, 48 hr. after
# [21] = human ghrelin 0.5 mg/mL in Mcllvain buffer, pH 4, 25±2°C, 72 hr. after
# [22] = human ghrelin 0.5 mg/mL in Mcllvain buffer, pH 4, 25±2°C, before storage
# [23] = human ghrelin 0.5 mg/mL in Mcllvain buffer, pH 5, 25±2°C, 8 hr. after
# [24] = human ghrelin 0.5 mg/mL in Mcllvain buffer, pH 5, 25±2°C, 24 hr. after
# [25] = human ghrelin 0.5 mg/mL in Mcllvain buffer, pH 5, 25±2°C, 48 hr. after
# [26] = human ghrelin 0.5 mg/mL in Mcllvain buffer, pH 5, 25±2°C, 72 hr. after
# [27] = human ghrelin 0.5 mg/mL in Mcllvain buffer, pH 5, 25±2°C, before storage
smiles,measurement,setting,value
CCCCCCCC(=O)OC[C@H](NC(=O)[C@H](CO)NC(=O)CN)C(=O)N[C@@H](Cc1ccccc1)C(=O)N[C@@H](CC(C)C)C(=O)N[C@@H](CO)C(=O)N1CCC[C@H]1C(=O)N[C@@H](CCC(=O)O)C(=O)N[C@@H](Cc1c[nH]cn1)C(=O)N[C@@H](CCC(N)=O)C(=O)N[C@@H](CCCNC(=N)N)C(=O)N[C@H](C(=O)N[C@@H](CCC(N)=O)C(=O)N[C@@H](CCC(N)=O)C(=O)N[C@@H](CCCNC(=N)N)C(=O)N[C@@H](CCCCN)C(=O)N[C@@H](CCC(=O)O)C(=O)N[C@@H](CO)C(=O)N[C@@H](CCCCN)C(=O)N[C@@H](CCCCN)C(=O)N1CCC[C@H]1C(=O)N1CCC[C@H]1C(=O)N[C@@H](C)C(=O)N[C@@H](CCCCN)C(=O)N[C@@H](CC(C)C)C(=O)N[C@@H](CCC(N)=O)C(=O)N1CCC[C@H]1C(=O)N[C@@H](CCCNC(=N)N)C(=O)O)C(C)C [Human ghrelin],Residual ratio,[1],more than 87%
same,Peak area ratio to total peak area,[2]; [3],94.40%
same,pH observed,[2]; [3],1.2
same,Peak area ratio to total peak area,[2]; [4],86.00%
same,pH observed,[2]; [4],1.2
same,Peak area ratio to total peak area,[2]; [5],74.62%
same,pH observed,[2]; [5],1.2
same,Peak area ratio to total peak area,[2]; [6],65.04%
same,pH observed,[2]; [6],1.2
same,Peak area ratio to total peak area,[2]; [7],98.89%
same,pH observed,[2]; [7],1.1
same,Peak area ratio to total peak area,[2]; [8],98.82%
same,pH observed,[2]; [8],2.0
same,Peak area ratio to total peak area,[2]; [9],98.24%
same,pH observed,[2]; [9],2.0
same,Peak area ratio to total peak area,[2]; [10],97.35%
same,pH observed,[2]; [10],2.0
same,Peak area ratio to total peak area,"[2]; human ghrelin 0.5 mg/mL in Mcllvain buffer, pH 2, 25±2°C, 48 hr. after, listed as human ghrelin",less than 98%
same,Peak area ratio to total peak area,[2]; [11],96.46%
same,pH observed,[2]; [11],2.0
same,Peak area ratio to total peak area,[2]; [12],99.07%
same,pH observed,[2]; [12],2.0
same,Peak area ratio to total peak area,[2]; [13],98.98%
same,pH observed,[2]; [13],3.1
same,Peak area ratio to total peak area,[2]; [14],98.77%
same,pH observed,[2]; [14],3.1
same,Peak area ratio to total peak area,[2]; [15],98.40%
same,pH observed,[2]; [15],3.1
same,Peak area ratio to total peak area,[2]; [16],98.03%
same,pH observed,[2]; [16],3.1
same,Peak area ratio to total peak area,[2]; [17],99.07%
same,pH observed,[2]; [17],3.0
same,Peak area ratio to total peak area,[2]; [18],99.07%
same,pH observed,[2]; [18],4.0
same,Peak area ratio to total peak area,[2]; [19],98.92%
same,pH observed,[2]; [19],4.0
same,Peak area ratio to total peak area,[2]; [20],98.69%
same,pH observed,[2]; [20],4.0
same,Peak area ratio to total peak area,[2]; [21],98.44%
same,pH observed,[2]; [21],4.0
same,Peak area ratio to total peak area,[2]; [22],99.07%
same,pH observed,[2]; [22],4.0
same,Peak area ratio to total peak area,[2]; [23],99.04%
same,pH observed,[2]; [23],5.0
same,Peak area ratio to total peak area,[2]; [24],98.91%
same,pH observed,[2]; [24],5.0
same,Peak area ratio to total peak area,[2]; [25],98.59%
same,pH observed,[2]; [25],5.0
same,Peak area ratio to total peak area,[2]; [26],98.37%
same,pH observed,[2]; [26],5.0
same,Peak area ratio to total peak area,[2]; [27],99.06%
same,pH observed,[2]; [27],5.0
